Source: patent publication US20020137929A1, “1 - (3-heterocyclylphenyl) isothiourea, -isourea, -guanidine and -amidine herbicidal agents” (Intellectual Property Department, BASF Aktiengesellschaft, priority 1998, published 2002)

Key:
CYPIR (Rice Flatsedge) = assay: Preemergence weed control under flooded paddy conditions; assay type: in vivo, Cyperus iria; conditions: rated 3-4 weeks after treatment
Summary of the method: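 First, seeds or propagules go into the top 0.5 cm of silt loam; next, water is held 1.5 to 3 cm over the soil; then compound (50/50 acetone/water) is pipetted into it at about 0.0313 to 0.500 kg/ha; finally plants are rated visually 0-9 after three to four weeks.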

AMBEL (Ragweed, Common) = assay: Preemergence herbicidal evaluation; assay type: in vivo, Ambrosia artemisifolia; conditions: rated 4-5 weeks after treatment
Text: Results of herbicide evaluation are expressed on a rating scale (0-9). The scale is based upon a visual observation of plant stand, vigor, malformation, size, chlorosis and overall plant appearance as compared with a control.
The preemergence herbicidal activity of the test compounds of the present invention is exemplified by the following tests in which the seeds of a variety of monocotyledonous and dicotyledonous plants are separately mixed with potting soil and planted on top of approximately one inch of soil in separate pint cups. After planting, the cups are sprayed with the selected aqueous acetone solution containing test compound in sufficient quantity to provide the equivalent of about 0.0156 to 0.500 kg per hectare of test compound per cup. The treated cups are then placed on greenhouse benches, watered and cared for in accordance with conventional greenhouse procedures. From four to five weeks after treatment, the tests are terminated and each cup is examined and rated according to the rating system provided in Example 37.
The compounds evaluated are reported by compound number given in Example 37.

[1] = rate 0.0313 kg/ha, rating scale 0-9
[2] = rate 0.0625 kg/ha, rating scale 0-9
[3] = rate 0.1250 kg/ha, rating scale 0-9
[4] = rate 0.2500 kg/ha, rating scale 0-9
[5] = rate 0.0156 kg/ha, rating scale 0-9

Row | Compound | herbicidal effect rating, CYPIR (CYPIR (Rice Flatsedge); 0.0313 kg/ha) | herbicidal effect rating, CYPIR (CYPIR (Rice Flatsedge); 0.0625 kg/ha) | herbicidal effect rating, CYPIR (CYPIR (Rice Flatsedge); 0.1250 kg/ha) | herbicidal effect rating, CYPIR (CYPIR (Rice Flatsedge); 0.2500 kg/ha) | Preemergence herbicidal rating AMBEL (AMBEL (Ragweed, Common); rate 0.0156 kg/ha) | Preemergence herbicidal rating AMBEL (AMBEL (Ragweed, Common); rate 0.0313 kg/ha) | Preemergence herbicidal rating AMBEL (AMBEL (Ragweed, Common); rate 0.0625 kg/ha) | Preemergence herbicidal rating AMBEL (AMBEL (Ragweed, Common); rate 0.1250 kg/ha) | Preemergence herbicidal rating AMBEL (AMBEL (Ragweed, Common); rate 0.2500 kg/ha) | Preemergence herbicidal rating AMBEL (AMBEL (Ragweed, Common); [1]) | Preemergence herbicidal rating AMBEL (AMBEL (Ragweed, Common); [2]) | Preemergence herbicidal rating AMBEL (AMBEL (Ragweed, Common); [3]) | Preemergence herbicidal rating AMBEL (AMBEL (Ragweed, Common); [4]) | Preemergence herbicidal rating AMBEL (AMBEL (Ragweed, Common); [5])
1 | Cc1ccccc1CN1C(=O)CSC1=Nc1cc(-n2c(=O)cc(C(F)(F)F)n(C)c2=O)c(F)cc1Cl [Compound 129, 3-{4-Chloro-2-fluoro-5-{[3-(o-methylbenzyl)-4-oxo-2-thiazolidinylidene]amino}phenyl}-1-methyl-6-(trifluoromethyl)-2,4 (1H,3H)-pyrimidinedione] | 4.0 | 5.0 | 7.0 | 9.0 | 0.0 | 0.0 | 0.0 | 7.0 | 7.0 |  |  |  |  | 
2 | Cn1c(C(F)(F)F)cc(=O)n(-c2cc(N=C3SCC(=O)N3Cc3ccccn3)c(Cl)cc2F)c1=O [Compound 131] |  |  | 0.0 | 4.0 |  |  |  |  |  | 0.0 | 0.0 | 0.0 | 0.0 | 
3 | Cn1c(C(F)(F)F)cc(=O)n(-c2cc(N=C3SCC(=O)N3Cc3cccnc3)c(Cl)cc2F)c1=O [Compound 132, 3-{4-Chloro-2-fluoro-5-{[4-oxo-3-(3-pyridylmethyl)-2-thiazolidinylidene]amino}phenyl}-1-methyl-6-(trifluoromethyl)-2,4 (1H,3H)-pyrimidinedione] | 0.0 | 0.0 | 0.0 | 3.0 |  |  |  |  |  |  | 0.0 | 4.0 | 7.0 | 
4 | Cn1c(C(F)(F)F)cc(=O)n(-c2cc(N=C3SCC(=O)N3Cc3ccncc3)c(Cl)cc2F)c1=O [Compound 133, 3-{4-Chloro-2-fluoro-5-{[4-oxo-3-(4-pyridylmethyl)-2-thiazolidinylidene]amino}phenyl}-1-methyl-6-(trifluoromethyl)-2,4(1H,3H)-pyrimidinedione] | 0.0 | 0.0 | 2.0 | 3.0 |  |  |  |  |  | 0.0 | 0.0 | 0.0 | 1.0 | 
5 | Cn1c(C(F)(F)F)cc(=O)n(-c2cc(N=C3SCC(=O)N3Cc3cccc(Cl)c3)c(Cl)cc2F)c1=O [Compound 136, 3-{4-Chloro-5-{[3-(m-chlorobenzyl)-4-oxo-2-thiazolidinylidene]amino}-2-fluorophenyl}-1-methyl-6-(trifluoromethyl)-2,4(1H,3H)-pyrimidinedione] | 0.0 | 5.0 | 6.0 | 7.0 |  |  |  |  |  | 0.0 | 1.0 | 2.0 | 5.0 | 0.0
6 | COc1cc(CN2C(=O)CSC2=Nc2cc(-n3c(=O)cc(C(F)(F)F)n(C)c3=O)c(F)cc2Cl)cc(OC)c1OC [Compound 140, 3-{4-Chloro-2-fluoro-5-{[3-(3,4,5-trimethoxybenzyl)-4-oxo-2-thiazolidinylidene]amino}phenyl}-1-methyl-6-(trifluoromethyl)-2,4(1H,3H)-pyrimidinedione] | 4.0 | 7.0 | 9.0 | 7.0 |  |  |  |  |  |  | 0.0 | 0.0 | 0.0 | 
7 | Cn1c(C(F)(F)F)cc(=O)n(-c2cc(N=C3SCC(=O)N3Cc3ccc(Cl)c(Cl)c3)c(Cl)cc2F)c1=O [Compound 144, 3-{4-Chloro-5-{[3-(3,4-dichlorobenzyl)-4-oxo-2-thiazolidinylidene]amino}-2-fluorophenyl}-1-methyl-6-(trifluoromethyl)-2,4(1H,3H)-pyrimidinedione] | 3.0 | 3.0 | 9.0 | 9.0 |  |  |  |  |  | 0.0 | 0.0 | 4.0 | 7.0 | 0.0
8 | Cc1cc(C)cc(CN2C(=O)CSC2=Nc2cc(-n3c(=O)cc(C(F)(F)F)n(C)c3=O)c(F)cc2Cl)c1 [Compound 146, 3-{4-Chloro-5-{[3-(3,5-dimethylbenzyl)-4-oxo-2-thiazolidinylidene]amino}-2-fluorophenyl}-1-methyl-6-(trifluoromethyl)-2,4(1H,3H)-pyrimidinedione] | 4.0 | 6.0 | 6.0 | 7.0 |  |  |  |  |  | 0.0 | 0.0 | 0.0 | 3.0 | 0.0
9 | Cn1c(C(F)(F)F)cc(=O)n(-c2cc(N=C3SCC(=O)N3Cc3cc(Cl)cc(Cl)c3)c(Cl)cc2F)c1=O [Compound 150, 3-{4-Chloro-5-{[3-(3,5-dichlorobenzyl)-4-oxo-2-thiazolidinylidene]amino}-2-fluorophenyl}-1-methyl-6-(trifluoromethyl)-2,4(1H,3H)-pyrimidinedione] | 9.0 | 9.0 | 9.0 | 9.0 |  |  |  |  |  | 0.0 | 0.0 | 3.0 | 7.0 | 
10 | Cn1c(C(F)(F)F)cc(=O)n(-c2cc(N=C3SCC(=O)N3Cc3ccc(F)cc3)c(Cl)cc2F)c1=O [Compound 151, 3-{4-Chloro-2-fluoro-5-{[3-(p-fluorobenzyl)-4-oxo-2-thiazolidinylidene]amino}phenyl}-1-methyl-6-(trifluoromethyl)-2,4(1H,3H)-pyrimidinedione] | 0.0 | 2.0 | 6.0 | 8.0 |  |  |  |  |  | 7.0 | 9.0 | 9.0 | 9.0 | 1.0
11 | CCOC(=O)CN1C(=O)C(Br)SC1=Nc1cc(-n2c(=O)cc(C(F)(F)F)n(C)c2=O)c(F)cc1Cl (centres unmarked) [Compound 153, Ethyl 5-bromo-2-[{2-chloro-5-[3,6-dihydro-3-methyl-2,6-dioxo-4-(trifluoromethyl)-1(2H)-pyrimidinyl]-4-fluorophenyl}imino}-4-oxo-3-thiazolidineacetate] |  | 0.0 | 0.0 | 3.0 |  |  |  |  |  |  |  | 0.0 | 1.0 | 
